Structure (SMILES) | melting point [°C]
CN(C)C=Cc1ccc(-c2csc(-c3ccc(F)cc3)n2)cc1[N+](=O)[O-] | 137 to 138
CCOC(=O)C(=O)C(C#N)c1ccc(Cl)cc1 (centres undefined) | 135 to 136
CC(Oc1ncn(-c2ccc(Cl)cc2Cl)n1)C(=O)O (centres undefined) | 151 to 153
CCOC(=O)Cc1cccc2c(-c3ccc(N)cc3)nccc12 | 129 to 132
CN(C(=O)N1CCN(C[C@@]2(C)Cn3cc([N+](=O)[O-])nc3O2)CC1)c1ccc(C(F)(F)F)cc1 | 100 to 102
O=C1c2ccccc2C2(c3ccccc3)NCCCCN12 (centres undefined) | 180 to 181
O=c1c2c(oc3ncccc13)-c1ccccc1CCC2 | 186 to 190
CCOC(=O)CCCOc1ccc([N+](=O)[O-])c(C=C2C(=O)NC(=O)N2C)c1 | 161 to 163
CCOC(=O)c1ccc(NCc2cc(Br)ccc2OCc2ccccc2)c(N)c1 | 135
CC(=O)c1ccc(SC2SCC(O)C(O)C2O)cc1 (centres undefined) | 175
CC(C)(C)c1cc(C2=C(c3cc(C(C)(C)C)c(O)c(C(C)(C)C)c3)C2=C(C#N)C#N)cc(C(C)(C)C)c1O | 280 to 281
O=C(O)[C@@H]1Cc2cc(Cl)cc(Cl)c2S[C@H]1C(F)(F)F (relative stereo) | 165 to 170
COc1ccc(CN2C(=O)C3(COc4cc5c(C)noc5cc43)c3ccccc32)cc1 (centres undefined) | 183 to 184
COc1cc(OC)cc(C(=O)N[C@H]2CCN(C)C[C@H]2c2ccccc2)c1 (relative stereo) | 123 to 124
O=C1N=CNC(O)C1C(=O)Nc1ccccc1 (centres undefined) | 200 to 208
NNC1=NCCc2ccccc21 | 55 to 57
O=C1N(Cc2ncccc2C(F)(F)F)c2ccccc2C12COc1cc3c(cc12)OC(F)(F)O3 (centres undefined) | 200 to 201
O=c1c2ccc(Cl)cc2[nH]c2c(=O)n(-c3ccc(F)cc3)nc(O)c12 | 390 to 392
O=S(=O)(O)NCCC(F)(F)F | > 250
CC(C)NC(=O)c1cc(N(C)C)cc(Oc2cccc(C(F)(F)F)c2)n1 | 108 to 110
Cc1cc(SC2=C(O)CC(C3CCCC3)(C3CCCC3)OC2=O)c(C(C)(C)C)cc1CO | 158 to 160
Cc1cccc2ncc(C(=O)NC3CCCCC3)c(=O)n12 | 174 to 176
CN1C(C)(C)CC(NC(=O)c2ccc(-c3cc4cc(Cl)c(Cl)cc4[nH]3)cc2)CC1(C)C | 325
Cc1nnc2n1-c1ccc([N+](=O)[O-])cc1C(c1ccccc1Cl)=NC2(C)C | 283
Cn1c(-c2ccc(C(=N)N)cc2)nc2cc(C(=O)NCCC(=O)O)ccc21 | 247 to 249

Structure (SMILES) | melting point [°C]
Cc1c(NC(=O)c2ccc(C(C)(C)C)cc2)cccc1-c1cc(Br)c(=O)n(C)c1 | 149 to 151
Cc1nn(-c2ccc(F)cc2F)cc1C(=O)O | 245 to 247
O=S1(=O)NC(C2CCCC2)Nc2ccc(S(=O)(=O)N3CCCCC3)cc21 (centres undefined) | 258 to 260
CC(=Cc1ccc(C(=O)O)cc1)c1ccc2c(c1)N(C)CCC2(C)C | 194 to 196
COc1ccc(OC)c(-c2ccc(C)cc2)c1 | 65 to 66
Oc1c(CN2CCCC2)cc(Nc2ccnc3ccccc23)cc1CN1CCCC1 | 67
C=CCNS(=O)(=O)c1ccc(Br)cc1 | 63 to 65
CCCCCCCN(CC1(c2ccccc2)CCCC1)C(=O)Nc1c(C(C)C)cccc1C(C)C | 95 to 97
O=C(Nc1ccnn1-c1c(Cl)cc(C(F)(F)F)c(Cl)c1Cl)C(Cl)Cl | 156 to 161
O=C(C=Cc1cccc(S(=O)(=O)Nc2ccc3ccccc3c2)c1)NO | 164
COc1ccc(NC(=O)Nc2ccc(Cl)c(Cl)c2)cc1NC(=S)Nc1cc(Cl)cc(Cl)c1 | 202
O=[N+]([O-])c1cc([N+](=O)[O-])c(Nc2nc(-c3ccc(Cl)cc3Cl)cs2)c(C(F)(F)F)c1 | 125 to 130
N#Cc1ccc(C(=O)N2CCC3(CC2)OCCO3)cn1 | 133 to 135
CC(=O)O[C@H]1C[C@@H](N=O)C(Cl)O[C@@H]1COS(=O)(=O)c1ccc(C)cc1 (some centres undefined) | 148 to 150
COCCOCc1ccc(C#CC2(O)CN3CCC2CC3)c(F)c1 (centres undefined) | 117 to 118
CCOC(=O)c1cnc(Nc2ccccc2OC(C)C)[nH]c1=O | 205 to 207
Cc1cc(C)cc(-c2ccc3c(c2)CC[C@H]2N(C)C(=O)CC[C@]32C)c1 | 129 to 130
CC(C)(C)OC(=O)N1CCN(c2nsc3ccccc23)CC1 | 105 to 107
O=C1CCC(N2C(=O)c3cccc(NCc4cccc(Cl)c4)c3C2=O)C(=O)N1 (centres undefined) | 207 to 209
CNC(=O)CN(c1ccc(Cl)cc1N(C)c1ccccc1)S(=O)(=O)c1ccc(OC)c(OC)c1 | 149
CN(C)C(=O)c1cc(-c2ccccc2)c(=O)n2c1-c1cc(Cl)ccc1CN2 | 250 to 252
O=C1Nc2cccc(Cl)c2C1(O)c1cc2c(cc1O)OCO2 (centres undefined) | 250 to 253
O=C(O)c1cccc2c1Cc1c-2[nH]c2ccc(I)cc12 | 251
Cc1ccc(COc2ccc(C(=O)NC[C@@H](C(=O)NO)N3CCN(S(C)(=O)=O)CC3)cc2)cc1 | 180
CC(=O)NCCc1c[nH]c2ncccc12 | 168

Structure (SMILES) | melting point [°C]
CC(C)(C)OC(=O)N1C[C@H](NS(=O)(=O)c2ccc(Cl)cc2)C[C@H]1C=O | 120 to 122
CCOC(=O)Cc1cn(C)c2cc(C3CC3)nn2c1=O | 147 to 150
CCCCNc1c2c(nc3c1cnn3CC)CCc1ccccc1C2=O | 91 to 93
Nc1n[nH]c2ncnc(Nc3cccc(Cl)c3)c12 | 232 to 234
O=C(Nc1ccc(S(=O)(=O)c2ccccc2)cc1)C(O)(C(F)F)C(F)F | 105 to 108
CCCCCCCCCCCCC1=C(O)C(=O)NC1=O | 108 to 109
Cc1c(C(=O)Nc2ccc(N3CCC(N4CCCCC4)CC3)c(C#N)c2)cnn1-c1ccc(F)cc1 | 237 to 238
CC(=O)Nc1nc(C)c(CCN2CCC(=C(c3ccc(F)cc3)c3ccc(F)cc3)CC2)c(=O)n1C | 141
O=S1(=O)CCN(c2nc(Cl)nc3c(Cl)ncnc23)CC1 | 270 to 273
CCn1ncc(C(=O)c2ccc(S(C)(=O)=O)c(C)c2Cl)c1O | 225 to 227
O=C(N1CCC1)N1CC(Oc2cccc(C(F)(F)F)c2)C1 | 65 to 68
COc1cc(Nc2ccc(CCCc3ccc(Cl)c(Cl)c3)cc2)c(C(=O)O)cc1[N+](=O)[O-] | 200 to 201
CCCS(=O)(=O)c1sc(C(N)=O)c2c1-c1c(cnn1C)CC2 | 142 to 143
Cn1c(-c2ccccc2)cc2cc(N)ccc21 | 108 to 110
CC(C)c1cccc(C(C)C)c1-n1nnn(C(C)C)c1=O | 60 to 62
CC(C)(C)OC(=O)Nc1cc(OCc2ccccc2)c(OCc2ccccc2)cn1 | 163
FC(F)c1nc2ccccc2n1-c1nc(Nc2cnccn2)nc(N2CCOCC2)n1 | 271 to 274
COc1cccc2c1cc(C)n2Cc1c(Cl)cccc1Cl | 154 to 157
COc1cc(CCCCCCC=O)ccc1OCc1nc(-c2ccccc2)oc1C | 64 to 65
O=[N+]([O-])c1cc(Oc2ccc(Oc3cc([N+](=O)[O-])cc(C(F)(F)F)c3)cc2)cc(C(F)(F)F)c1 | 163
O=C(O)c1cccc2ccc3c4ccccc4[nH]c3c12 | 343
O=c1c2ccccc2nc(-c2cc(-c3ccc(Cl)cc3)c(N3CCOCC3)s2)n1-c1ccc(Cl)cc1 | 240 to 243
O=C(Nc1ccc(C(=O)O)c(O)c1)c1ccc(-c2ccccc2)cc1 | 266
CCc1ccc2c(=O)c3ccccc3ccc2c1 | 62 to 64
C[Si](C)(C)C#Cc1cc2ccc(-n3nc4ccc5ccccc5c4n3)cc2oc1=O | 250 to 252

Structure (SMILES) | melting point [°C]
CC(C)NS(=O)(=O)Oc1ccc(F)cc1 | 145 to 146
C=CCC1(c2ccc(Br)cc2)C2CCC(C(=O)C2)C1Nc1ccc(OC)cc1 (centres undefined) | 68 to 69
CCCc1nc2c(N)nc(C)c(C)c2n1CCCC(N)=O | 226 to 228
CCC1(C)NC(=O)c2ccccc2O1 (centres undefined) | 76 to 78
COc1c(NC(=O)Nc2ccc(-c3ccc(CN4CCOCC4)nc3)c3ccccc23)cc(C(C)(C)C)cc1Nc1c(N(C)C)c(=O)c1=O | 176 to 179
NC(=O)N(O)Cc1sccc1Br | 138 to 140
O=C1Cc2cc(Br)ccc2Oc2cc(O)cc(O)c21 | 112 to 117
Cc1ccc(C(=O)c2cccc(C(=O)O)c2)c(O)c1 | 198 to 215
N#CC(=Cc1ccc(O)c(O)c1)C(N)=O | 247
CCC(=O)NCC1CC1c1cccc2nc(C)sc12 (centres undefined) | 59 to 61
N#Cc1ccc(NC(=O)c2cccc(OCc3cccc(F)c3F)c2)cc1 | 149 to 150
CC12CC3(C)CC(c4ccc(O)cc4)(C1)CC(c1ccc(O)cc1)(C2)C3 | 222 to 224
O=C(O)c1cccc(-c2ccc3c(c2)C(c2ccc(Cl)cc2Cl)CC3)c1 (centres undefined) | 157 to 158
CC(=O)N(Nc1ccc(Cl)cc1F)c1c(C#N)cnc2cc(O)ccc12 | 182 to 191
CCc1cc2[nH]c(=O)c(=O)[nH]c2c(N(CC(=O)OC)S(C)(=O)=O)c1Cl | 296 to 299
CN=C1SCN(Cc2ccccc2)C(=O)N1C | 93 to 95
Nc1c([N+](=O)[O-])cnn1-c1c(Cl)cc(C(F)(F)F)c(Cl)c1Cl | 78 to 85
Cc1ccc(S(=O)(=O)Nc2cnc(C3OCCO3)cc2C)cc1 | 155 to 156
COC(=O)c1cnc(N2CCN(Cc3ccccc3)CC2)nc1C | 38 to 40
CCOC(=O)c1cc2cc(OC(C)=O)ccc2n1C | 87 to 89
Cn1nnc2c(N3CCN(Cc4ccccc4)CC3)ncnc21 | 91 to 92
C=CCN1C(=O)C2=C(c3ccccc3)N(CC=C)C(=O)C2=C1c1ccccc1 | 216 to 217
O=C1CCCc2c1n(CCBr)c1ccc(Cl)cc21 | 121
N#CCC(=O)NCc1ccccn1 | 82 to 83

From a melting point compilation (Tetko et al.; mined from patent text by program, amines drawn as free bases though some values may be those of a salt)
